Assay results taken from ChEMBL document CHEMBL3885881, “DrugMatrix”.

Species: Rattus norvegicus
Experiment: DrugMatrix - Regimen: Daily Repeat
Assay type: toxicity, organism-based, Sprague-Dawley
Design: regimen Daily Repeat, gender Male, age 6-8 weeks
Details: in vivo, po, route oral GAVAGE, vehicle .5 % CMC; for ABSOLUTE BASOPHIL / ABSOLUTE EOSINOPHIL / ABSOLUTE LYMPHOCYTE / ABSOLUTE MONOCYTE / ABSOLUTE SEGMENTED NEUTROPHIL / BASOPHIL / EOSINOPHIL / ERYTHROCYTE COUNT / HEMATOCRIT / HEMOGLOBIN / LEUKOCYTE COUNT / LYMPHOCYTE / MEAN CORPUSCULAR HEMOGLOBIN / MEAN CORPUSCULAR HEMOGLOBIN CONCENTRATION / MEAN CORPUSCULAR VOLUME / MONOCYTE / NEUTROPHIL / NUCLEATED RED BLOOD CELLS / PLATELET COUNT: tissue Blood; for ALANINE AMINOTRANSFERASE / ALBUMIN / ALKALINE PHOSPHATASE / ASPARTATE AMINOTRANSFERASE / BLOOD UREA NITROGEN / CARBON DIOXIDE / CHLORIDE / CHOLESTEROL / CREATINE PHOSPHOKINASE / CREATININE / GLUCOSE / LACTATE DEHYDROGENASE / LIPASE / PHOSPHORUS / POTASSIUM / SODIUM / TOTAL BILIRUBIN / TOTAL PROTEIN / URIC ACID: tissue Plasma
[1] = 0 mg/kg, 72 h, dose level Control, time 3 day
[2] = 0 mg/kg, 120 h, dose level Control, time 5 day
[3] = 100 mg/kg, 72 h, dose level Low, time 3 day

## CN/C(=N/CCSCc1nc[nH]c1C)NC#N [CIMETIDINE]
[1]
  ABSOLUTE BASOPHIL: 0 CELLS/uL
  ABSOLUTE EOSINOPHIL: 0 CELLS/uL
  ABSOLUTE LYMPHOCYTE: 12191.17 CELLS/uL
  ABSOLUTE MONOCYTE: 183.17 CELLS/uL
  ABSOLUTE SEGMENTED NEUTROPHIL: 1192.33 CELLS/uL
  BASOPHIL: 0%
  EOSINOPHIL: 0%
  ERYTHROCYTE COUNT: 5.51 x10E6/uL
  HEMATOCRIT: 35.45%
  HEMOGLOBIN: 13.82 G/DL
  LEUKOCYTE COUNT: 13.57 x10E3/uL
  LYMPHOCYTE: 89.83%
  MEAN CORPUSCULAR HEMOGLOBIN: 25.1 pg
  MEAN CORPUSCULAR HEMOGLOBIN CONCENTRATION: 38.98 G/DL
  MEAN CORPUSCULAR VOLUME: 64.42 fL
  MONOCYTE: 1.33%
  NEUTROPHIL: 8.83%
  NUCLEATED RED BLOOD CELLS: 0 /100WBC
  PLATELET COUNT: 1118.17 x10E3/uL
  ALANINE AMINOTRANSFERASE: 55 u/L
  ALBUMIN: 4.15 G/DL
  ALKALINE PHOSPHATASE: 449.5 u/L
  ASPARTATE AMINOTRANSFERASE: 112.83 u/L
  BLOOD UREA NITROGEN: 17.33 mg/dL
  CARBON DIOXIDE: 29.5 mmol/L
  CHLORIDE: 101 MEQ/L
  CHOLESTEROL: 70 mg/dL
  CREATINE PHOSPHOKINASE: 1325.83 u/L
  CREATININE: 0.18 mg/dL
  GLUCOSE: 171.5 mg/dL
  LACTATE DEHYDROGENASE: 386 u/L
  LIPASE: 10 u/L
  PHOSPHORUS: 11.57 mg/dL
  POTASSIUM: 6.21 MEQ/L
  SODIUM: 141.65 MEQ/L
  TOTAL BILIRUBIN: 0.15 mg/dL
  TOTAL PROTEIN: 5.75 G/DL
  URIC ACID: 1.28 mg/dL
[2]
  ABSOLUTE BASOPHIL: 0 CELLS/uL
  ABSOLUTE EOSINOPHIL: 138.17 CELLS/uL
  ABSOLUTE LYMPHOCYTE: 13283.17 CELLS/uL
  ABSOLUTE MONOCYTE: 303.83 CELLS/uL
  ABSOLUTE SEGMENTED NEUTROPHIL: 1308.17 CELLS/uL
  BASOPHIL: 0%
  EOSINOPHIL: 1%
  ERYTHROCYTE COUNT: 5.32 x10E6/uL
  HEMATOCRIT: 33.8%
  HEMOGLOBIN: 13.63 G/DL
  LEUKOCYTE COUNT: 15.03 x10E3/uL
  LYMPHOCYTE: 88.33%
  MEAN CORPUSCULAR HEMOGLOBIN: 25.68 pg
  MEAN CORPUSCULAR HEMOGLOBIN CONCENTRATION: 40.35 G/DL
  MEAN CORPUSCULAR VOLUME: 63.67 fL
  MONOCYTE: 1.83%
  NEUTROPHIL: 8.83%
  NUCLEATED RED BLOOD CELLS: 0 /100WBC
  PLATELET COUNT: 1097.5 x10E3/uL
  ALANINE AMINOTRANSFERASE: 54.5 u/L
  ALBUMIN: 4.27 G/DL
  ALKALINE PHOSPHATASE: 337 u/L
  ASPARTATE AMINOTRANSFERASE: 94.67 u/L
  BLOOD UREA NITROGEN: 17 mg/dL
  CARBON DIOXIDE: 28.33 mmol/L
  CHLORIDE: 101.5 MEQ/L
  CHOLESTEROL: 71.33 mg/dL
  CREATINE PHOSPHOKINASE: 628.17 u/L
  CREATININE: 0.19 mg/dL
  GLUCOSE: 177.83 mg/dL
  LACTATE DEHYDROGENASE: 500.5 u/L
  LIPASE: 9.5 u/L
  PHOSPHORUS: 12.3 mg/dL
  POTASSIUM: 5.63 MEQ/L
  SODIUM: 143.03 MEQ/L
  TOTAL BILIRUBIN: 0.2 mg/dL
  TOTAL PROTEIN: 6.02 G/DL
  URIC ACID: 1.5 mg/dL
[3]
  ABSOLUTE BASOPHIL: 0 CELLS/uL
  ABSOLUTE EOSINOPHIL: 0 CELLS/uL
  ABSOLUTE LYMPHOCYTE: 13567.33 CELLS/uL
  ABSOLUTE MONOCYTE: 279 CELLS/uL
  ABSOLUTE SEGMENTED NEUTROPHIL: 1153.67 CELLS/uL
  BASOPHIL: 0%
  EOSINOPHIL: 0%
  ERYTHROCYTE COUNT: 5.31 x10E6/uL
  HEMATOCRIT: 33.83%
  HEMOGLOBIN: 13.33 G/DL
  LEUKOCYTE COUNT: 15 x10E3/uL
  LYMPHOCYTE: 89.67%
  MEAN CORPUSCULAR HEMOGLOBIN: 25.1 pg
  MEAN CORPUSCULAR HEMOGLOBIN CONCENTRATION: 39.4 G/DL
  MEAN CORPUSCULAR VOLUME: 63.63 fL
  MONOCYTE: 2%
  NEUTROPHIL: 8.33%
  NUCLEATED RED BLOOD CELLS: 0 /100WBC
  PLATELET COUNT: 1282 x10E3/uL
  ALANINE AMINOTRANSFERASE: 53 u/L
  ALBUMIN: 4.17 G/DL
  ALKALINE PHOSPHATASE: 373 u/L
  ASPARTATE AMINOTRANSFERASE: 80.33 u/L
  BLOOD UREA NITROGEN: 17.67 mg/dL
  CARBON DIOXIDE: 30 mmol/L
  CHLORIDE: 100.33 MEQ/L
  CHOLESTEROL: 78.33 mg/dL
  CREATINE PHOSPHOKINASE: 276 u/L
  CREATININE: 0.18 mg/dL
  GLUCOSE: 159.67 mg/dL
  LACTATE DEHYDROGENASE: 157.33 u/L
  LIPASE: 10 u/L
  PHOSPHORUS: 10.93 mg/dL
  POTASSIUM: 6.04 MEQ/L
  SODIUM: 141.53 MEQ/L
  TOTAL BILIRUBIN: 0.17 mg/dL
  TOTAL PROTEIN: 5.77 G/DL
  URIC ACID: 1.33 mg/dL
